Data on four molecules can be found in US20200172913A1, “PEPTIDES AND NANOPARTICLES FOR INTRACELLULAR DELIVERY OF VIRUS” (priority 2017, published 2020).

Where no end group is shown, it is not given here.

For test [1], the target named is Adeno-associated virus AAV-2 encoding green fluorescent protein (adeno-associated virus serotype 2) (UniProt P03135). In words: cell-based or functional assay.
The test system of test [2] is HCN2 cells. Nature of the test: AAV-1-GFP transduction with CPPs, flow cytometry. In kind it is cell-based, human. As to conditions: 200 μM CPP; for cells expressing GFP: AAV-1 MOI of 500, HCN2, 5% in the absence of CPP. How it is done:
(§1) In this example different AAV serotypes including AAV 1, AAV2, AAV5, AAV6, AAV8 and AAV9 were tested against human hepatocytes (HepG2) and human neuronal cells (HCN2) in the presence or in the absence of CPPs including ADGN-103a, ADGN-103b, ADGN-100, ADGN-109, ADGN-106, PEP-1, PEP-2, CADY, and TAT-HA2.
(§2) AAV-1, AAV-2, AAV-5, and AAV-6 viruses encoding green fluorescent protein were obtained from Cell Biolabs Inc and AAV-8 from Vector Biolabs. Stock solutions of virus were obtained at 1χ10^13 GC/ml in PBS/0.01% and diluted 50-fold to 2×10^11 GC/ml before use.
(§3) AAV-1, AAV-2, AAV-5, and AAV6 encoding green fluorescent protein were used at low MOI of 500 (1-2×10^7 PFU) and AAV-8 at MOI of 1000 (2-4×10^7 PFU). HepG2 and HCN2 cells (1 10^6 cells per well) were cultured in a 24 well plate culture dish format. For MOI of 1000, 5 μl of AAV virus diluted solutions were preincubated in PBS with increasing concentration of CPPs ranging from 0.1 to 200 μM for 30 min. For MOI of 500, 2.5 μl of AAV virus diluted solutions were preincubated in PBS with increasing concentration of CPPs ranging from 0.1 to 200 μM for 30 min. 200 μl of AAV or CPP/AAV complex solutions were added to cultured cells (1×10^6 cells per well). Cells are treated with either free AAV or CPP/AAV complexes for 4 h. and then the medium is replaced with fresh medium.
(§4) Viral mediated transgene expression was monitored by flow cytomety 2 days post-infection in HepG2 and Human neuronal HCN2. The percentage of GFP expressing cells were detected by flow cytometry and the increase of AAV infectivity was calculated based on the number of GFP-positive cells. Results are reported in FIGS. 5A-5D, 6A-6D, 7A-7D, 8A-8D, and 9A-9D.
On the technique in general: Flow cytometry measures light scatter and fluorescence of single cells or particles in a stream.

In test [3] the test system is HepG2 cells. Nature of the test: AAV-1-GFP transduction with CPPs, flow cytometry. Format: cell-based, human. As to conditions: 200 μM CPP; for cells expressing GFP: AAV-1 MOI of 500, HepG2, 5% in the absence of CPP. On the procedure: as §1, §2, §3, §4
The subject of test [4] is HepG2 and HCN2 cells. In words: AAV-1-GFP transduction with CPPs, statements for both cell lines. Format: cell-based, human. As to conditions: for impact on AAV-1 infectivity: 1 μM concentration, both cell lines; for share of the final improvement obtained with 200 μM: 10 μM concentration of CPP, AAV-1, both cell lines. How it is done: as §1, §2, §3, §4
Test [5] relates to HCN2 cells. Nature of the test: AAV-2-GFP transduction with CPPs, flow cytometry. Format: cell-based, human. Conditions: 200 μM CPP, AAV-2 MOI of 500, HCN2; 4% in the absence of CPP. On the procedure: as §1, §2, §3, §4
Test [6] deals with HepG2 cells. In words: AAV-2-GFP transduction with CPPs, flow cytometry. Format: cell-based, human. As to conditions: 200 μM CPP, AAV-2 MOI of 500, HepG2; 4% in the absence of CPP. On the procedure: as §1, §2, §3, §4
Test [7] has as its system HepG2 and HCN2 cells. In words: AAV-2-GFP transduction with CPPs, statements for both cell lines. In kind it is cell-based, human. Conditions: for impact on AAV-2 infectivity: 1 μM concentration, both cell lines; for share of the final improvement obtained with 200 μM: 10 μM concentration of CPP, AAV-2, both cell lines. How it is done:
as §1, §2, §3, §4

In test [8] the test system is HCN2 cells. In words: AAV-5-GFP transduction with CPPs, flow cytometry. In kind it is cell-based, human. As to conditions: 200 μM CPP, AAV-5 MOI of 500, HCN2; 5% in the absence of CPP. How it is done: as §1, §2, §3, §4
For test [9], the system named is HepG2 cells. In words: AAV-5-GFP transduction with CPPs, flow cytometry. Format: cell-based, human. Conditions: 200 μM CPP, AAV-5 MOI of 500, HepG2; 5% in the absence of CPP. How it is done:
as §1, §2, §3, §4

The test system of test [10] is HepG2 and HCN2 cells. Nature of the test: AAV-5-GFP transduction with CPPs, statements for both cell lines. In kind it is cell-based, human. Conditions: for impact on AAV-5 infectivity: 1 μM concentration, both cell lines; for share of the final improvement obtained at 200 μM: 10 μM concentration, AAV-5, both cell lines. On the procedure:
as §1, §2, §3, §4

Test [11] concerns HCN2 cells. Nature of the test: AAV-6-GFP transduction with CPPs, flow cytometry. Format: cell-based, human. Conditions: for cells expressing GFP: 200 μM of CPP, AAV-6 MOI of 500, HCN2, 4% in the absence of CPP. How it is done:
as §1, §2, §3, §4

The subject of test [12] is HepG2 cells. In words: AAV-6-GFP transduction with CPPs, flow cytometry. In kind it is cell-based, human. As to conditions: 200 μM CPP; for cells expressing GFP: AAV-6 MOI of 500, HepG2, 5% in the absence of CPP. On the procedure:
as §1, §2, §3, §4

Test [13] relates to HepG2 and HCN2 cells. In words: AAV-6-GFP transduction with CPPs, statements for both cell lines. Format: cell-based, human. Conditions: for impact on AAV-6 infectivity: 1 μM concentration, both cell lines; for share of the final improvement obtained at 200 μM: 10 μM concentration, AAV-6, both cell lines. How it is done:
as §1, §2, §3, §4

In test [14] the test system is HCN2 cells. Nature of the test: AAV-8-GFP transduction with CPPs, flow cytometry. Format: cell-based, human. As to conditions: 200 μM CPP, AAV-8 MOI of 1000, HCN2; 5% in the absence of CPP. On the procedure:
as §1, §2, §3, §4

Test [15] has as its system HepG2 cells. Nature of the test: AAV-8-GFP transduction with CPPs, flow cytometry. In kind it is cell-based, human. Conditions: 200 μM CPP, AAV-8 MOI of 1000, HepG2; 5% in the absence of CPP. How it is done: as §1, §2, §3, §4
In test [16] the test system is HepG2 and HCN2 cells. In words: AAV-8-GFP transduction with CPPs, statements for both cell lines. Format: cell-based, human. Conditions: for impact on AAV-8 infectivity: 1 μM concentration, both cell lines; for share of the final improvement obtained at 200 μM: 10 μM concentration, AAV-8, both cell lines. On the procedure: as §1, §2, §3, §4
The target of test [17] is Adeno-associated virus AAV-2 encoding green fluorescent protein (adeno-associated virus serotype 2) (UniProt P03135). Nature of the test: cell-based or functional assay. This is another data set of the same source.

Adeno-associated virus AAV-2 encoding green fluorescent protein (adeno-associated virus serotype 2), sequence (P03135 whole entry): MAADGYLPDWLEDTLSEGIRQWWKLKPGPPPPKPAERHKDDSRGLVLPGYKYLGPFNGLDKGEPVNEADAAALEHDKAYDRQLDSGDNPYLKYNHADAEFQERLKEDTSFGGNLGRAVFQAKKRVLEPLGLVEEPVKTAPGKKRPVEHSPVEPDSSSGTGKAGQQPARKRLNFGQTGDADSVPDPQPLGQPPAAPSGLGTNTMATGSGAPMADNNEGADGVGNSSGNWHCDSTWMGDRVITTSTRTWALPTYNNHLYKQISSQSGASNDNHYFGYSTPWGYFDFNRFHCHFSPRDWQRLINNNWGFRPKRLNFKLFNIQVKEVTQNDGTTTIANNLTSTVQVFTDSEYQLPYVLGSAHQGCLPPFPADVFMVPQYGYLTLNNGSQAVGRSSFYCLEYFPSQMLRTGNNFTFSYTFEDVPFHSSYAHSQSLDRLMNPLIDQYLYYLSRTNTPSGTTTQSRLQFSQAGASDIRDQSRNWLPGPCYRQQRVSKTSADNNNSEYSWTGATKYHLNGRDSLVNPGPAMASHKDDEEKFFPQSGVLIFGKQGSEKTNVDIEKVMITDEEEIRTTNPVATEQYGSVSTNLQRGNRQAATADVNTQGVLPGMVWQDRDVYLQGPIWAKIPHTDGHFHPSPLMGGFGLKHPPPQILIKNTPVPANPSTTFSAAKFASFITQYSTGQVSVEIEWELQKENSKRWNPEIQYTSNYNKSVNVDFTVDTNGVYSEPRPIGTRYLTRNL

As to PEP-1-PEG (peptide), the efficacy (GFP expressing 293 T cells) after incubation of the complexes in 50% serum in [1] was 30 % reduction.
As to “βAKWWERWWREWPRKRR (not fully specified (residue 1, N-terminus); printed as βAKWWERWWREWPRKRR) [ADGN-103b]”, the “cells expressing GFP” value with HCN2 cells [2] turned out to be 78%; in the test with HepG2 cells [3] it was 81%; in the test with HCN2 cells [5], 81%; in the test on HepG2 cells [6], 96%; in the test with HCN2 cells [8], 48%; in the test on HepG2 cells [9] it was 64%. Moreover, the “cells expressing GFP” value was found to be 67% in the test with HCN2 cells [11], 98% in the test with HepG2 cells [12], 58% in the test on HCN2 cells [14] and 60% with HepG2 cells [15]. In addition, the “impact on AAV-1 infectivity” value with HepG2 and HCN2 cells [4] is “significant impact”. Besides, the “share of the final improvement obtained with 200 μM” value in the test on HepG2 and HCN2 cells [4] is reported as “about 60%”; in the test on HepG2 and HCN2 cells [7] it was “about 70%”. In addition, the “impact on AAV-2 infectivity” value in the test on HepG2 and HCN2 cells [7] is on record as “significant impact”. For the same molecule, the “impact on AAV-5 infectivity” value in the test on HepG2 and HCN2 cells [10] is recorded as “significant impact”. For the same molecule, the “share of the final improvement obtained at 200 μM” value was “about 50%” in the test with HepG2 and HCN2 cells [10]; “about 70%” in the test on HepG2 and HCN2 cells [13]; “about 60%” in the test on HepG2 and HCN2 cells [16]. In addition, the “increase of AAV-6 efficiency” value is 22 fold in the test with HCN2 cells [11] (200 μM CPP, MOI of 500, HCN2) and 30 fold with HepG2 cells [12] (MOI of 500, HepG2). The “impact on AAV-6 infectivity” value with HepG2 and HCN2 cells [13] is listed as “significant impact”. Further, in the test with HepG2 and HCN2 cells [16], the “impact on AAV-8 infectivity” value is recorded as “significant impact”.
Consider “βALRWWLRWASRWFSRWAWWR (not fully specified (residue 1, N-terminus); printed as βALRWWLRWASRWFSRWAWWR) [ADGN-109]”, for which the “cells expressing GFP” value is reported as 62% in the test on HCN2 cells [2]; 61% in the test with HepG2 cells [3]; 58% in the test on HCN2 cells [5]; 90% in the test on HepG2 cells [6]; 37% with HCN2 cells [8]; 51% in the test on HepG2 cells [9]. Also, the “cells expressing GFP” value worked out at 62% in the test with HCN2 cells [11], 82% in the test on HepG2 cells [12], 44% in the test on HCN2 cells [14] and 45% with HepG2 cells [15]. For the same molecule, the “increase of AAV-1 efficiency” value in the test with HCN2 cells [2] (MOI of 500, HCN2) was determined as 15 fold; with HepG2 cells [3] (MOI of 500, HepG2), 16 fold. Further, the “impact on AAV-1 infectivity” value in the test with HepG2 and HCN2 cells [4] was “significant impact”. For the same molecule, the “share of the final improvement obtained with 200 μM” value is “about 60%” with HepG2 and HCN2 cells [4]; “about 70%” in the test with HepG2 and HCN2 cells [7]. Moreover, the “impact on AAV-2 infectivity” value with HepG2 and HCN2 cells [7] is on record as “significant impact”. Besides, the “impact on AAV-5 infectivity” value with HepG2 and HCN2 cells [10] was “significant impact”. For the same molecule, the “share of the final improvement obtained at 200 μM” value in the test with HepG2 and HCN2 cells [10] is “about 50%”; in the test on HepG2 and HCN2 cells [13], “about 70%”; in the test with HepG2 and HCN2 cells [16], “about 60%”. In addition, the “impact on AAV-6 infectivity” value in the test with HepG2 and HCN2 cells [13] was “significant impact”. Further, in the test on HepG2 and HCN2 cells [16], the “impact on AAV-8 infectivity” value is “significant impact”.
As to KETWWETWWTEWSQPKKKRKV (not fully specified (N-terminus, C-terminus)) [PEP-1 (N-acetylated, C-terminal cysteamide; Example 5)], in [17], the level of GFP expressing cells (293 T cells, flow cytometry) after 1 h incubation of the complexes in 20% serum was found to be 60 % reduction and the level of GFP expressing cells (293 T cells, flow cytometry) after 1 h incubation of the complexes in 50% serum came to 80 % reduction.
